For eleven molecules, TGI results are on record in PubChem BioAssay (NCI).

Some test systems named below: 786-0 renal; A498 renal; HS 578T breast; HT29 colon; MCF7 breast; MOLT-4 leukemia; SF-539 CNS; SK-OV-3 ovarian; SR leukemia; T-47D breast.
Common to all, as to test: inhibition of tumour cell growth, NCI panel, 48 h

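Briefly, cells in 96-well plates were exposed to five compound concentrations for 48 h, and endpoints were estimated by linear interpolation. TGI is the concentration that stops growth completely.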

In the case of `CC(=O)OC/C=C(/C=C/CNC1CCCCC1)OC(C)=O`, the TGI with 786-0 renal was 23.9 µM; in the experiment with A498 renal, 33.9 µM; in the experiment on HS 578T breast it was 80.7 µM; in the experiment on HT29 colon, 35.5 µM; in the experiment with MCF7 breast it was 66.9 µM; in the experiment with MOLT-4 leukemia, greater than 100 µM. In addition, the TGI is 24.2 µM in the experiment with SF-539 CNS, 33.8 µM in the experiment with SK-OV-3 ovarian, 35.7 µM in the experiment with SR leukemia and 36.7 µM in the experiment with T-47D breast.

Consider `COCC1OC(N2C(=O)NC(=O)[C@@H]3C=C4CCCCC4=C[C@@H]32)C(OC)C1OC` (stereo not given in full), for which the TGI in the experiment with 786-0 renal, in the experiment with A498 renal, with HS 578T breast, with HT29 colon, with MCF7 breast and in the experiment with MOLT-4 leukemia was greater than 100 µM each time. Also, the TGI in the experiment with SF-539 CNS, with SK-OV-3 ovarian, in the experiment on SR leukemia and in the experiment on T-47D breast was greater than 100 µM throughout.

`COCc1nc2c(OC)cc(-c3nc4ccc(N5CCN(C)CC5)cc4[nH]3)c(OC)c2[nH]1`: the TGI in the experiment with 786-0 renal, with A498 renal, with HS 578T breast, in the experiment on HT29 colon, with MCF7 breast and with MOLT-4 leukemia was greater than 100 µM in each case. For the same molecule, the TGI was 44.6 µM in the experiment on SF-539 CNS, greater than 100 µM in the experiment with SK-OV-3 ovarian, 54.6 µM in the experiment with SR leukemia and greater than 100 µM in the experiment with T-47D breast.

With `CC(C)(C)c1cc(/C=C(\C#N)C(=O)NCCO)cc(C(C)(C)C)c1O`, the TGI with 786-0 renal is 48.3 µM; in the experiment with A498 renal, 48.4 µM; in the experiment with HS 578T breast, greater than 100 µM; in the experiment on HT29 colon it was 51.7 µM; with MCF7 breast it was 93.5 µM; in the experiment on MOLT-4 leukemia, 59.1 µM. The TGI was found to be 38.3 µM in the experiment with SF-539 CNS, 60.2 µM in the experiment with SK-OV-3 ovarian, 49.4 µM in the experiment with SR leukemia and 76.8 µM with T-47D breast.

Regarding `CCOC(=O)C(CC#Cc1ccc(C#CCC(NC(C)=O)C(=O)OCC)cc1)NC(C)=O` (stereo not given), the TGI with 786-0 renal, with A498 renal, with HS 578T breast, with HT29 colon, in the experiment with MCF7 breast and with MOLT-4 leukemia was greater than 100 µM throughout. The TGI with SF-539 CNS, in the experiment with SK-OV-3 ovarian, with SR leukemia and with T-47D breast was greater than 100 µM each time.

`FC(F)(F)c1ccc2nc3n(c2c1)C(c1c(Cl)cccc1Cl)SC3` (stereo not given): the TGI with 786-0 renal is 28.4 µM; in the experiment with A498 renal it was 34.8 µM; in the experiment on HS 578T breast, 68.9 µM; in the experiment on HT29 colon, 30.4 µM; with MCF7 breast it was 37.9 µM; in the experiment on MOLT-4 leukemia it was greater than 100 µM. Also, the TGI was 33.1 µM in the experiment with SF-539 CNS, 27.9 µM with SK-OV-3 ovarian, 21.4 µM in the experiment on SR leukemia and 26.9 µM with T-47D breast.

On to `COC(=O)c1ccc(C=Nc2ccc(S(N)(=O)=O)cc2)cc1`, for which the TGI in the experiment on 786-0 renal, in the experiment on A498 renal, with HS 578T breast, with HT29 colon, in the experiment on MCF7 breast and in the experiment on MOLT-4 leukemia was greater than 100 µM each time. The TGI in the experiment with SF-539 CNS, in the experiment on SK-OV-3 ovarian, with SR leukemia and with T-47D breast was greater than 100 µM each time.

In the case of `Cn1c([O-])nc(-n2cc[n+](C)c2)cc1=O`, the TGI in the experiment on 786-0 renal, with A498 renal, in the experiment with HS 578T breast, with HT29 colon, in the experiment on MCF7 breast and with MOLT-4 leukemia was greater than 100 µM each time. Also, the TGI in the experiment with SF-539 CNS, with SK-OV-3 ovarian, in the experiment with SR leukemia and in the experiment on T-47D breast was greater than 100 µM throughout.

Regarding `CCOC(=O)C(NC(=O)CC(C)C)(N1CCN(c2cc3c(cc2F)c(=O)c(C(=O)O)cn3C2CC2)CC1)C(F)(F)F` (stereo not given), the TGI in the experiment with 786-0 renal was greater than 100 µM; in the experiment with A498 renal, 16.8 µM; with HS 578T breast it was 57.8 µM; in the experiment with HT29 colon, 91.6 µM; in the experiment on MCF7 breast, 68.4 µM; with MOLT-4 leukemia, 40.2 µM. For the same molecule, the TGI in the experiment with SF-539 CNS turned out to be 34.7 µM; with SK-OV-3 ovarian, 65.8 µM; in the experiment on SR leukemia it was 45.8 µM; in the experiment with T-47D breast, 86.7 µM.

Turning to `NC1CNC(=O)c2c(Cl)sc(Cl)c21` (stereo not given), the TGI with 786-0 renal, with A498 renal, in the experiment on HS 578T breast, in the experiment with HT29 colon, in the experiment on MCF7 breast and with MOLT-4 leukemia was greater than 100 µM throughout. The TGI in the experiment on SF-539 CNS, in the experiment with SK-OV-3 ovarian, in the experiment on SR leukemia and in the experiment on T-47D breast was greater than 100 µM each time.

For the molecule `CC1CC(=O)Nc2nc3ccccc3n21` (stereo not given), the TGI with 786-0 renal, in the experiment with A498 renal, with HS 578T breast, in the experiment on HT29 colon, in the experiment with MCF7 breast and in the experiment with MOLT-4 leukemia was greater than 100 µM throughout. For the same molecule, the TGI in the experiment with SF-539 CNS, with SK-OV-3 ovarian, with SR leukemia and in the experiment with T-47D breast was greater than 100 µM in each case.
